ChEMBL document CHEMBL4616632, “Discovery of Cyclic Boronic Acid QPX7728, an Ultrabroad-Spectrum Inhibitor of Serine and Metallo-β-lactamases” (J Med Chem, 2020)

Columns and labels:
Klebsiella pneumoniae [1] = experiment: Inhibition of Klebsiella pneumoniae KP1009 CTX-M-15 assessed as minimum concentration of compound required to reduce the MIC of aztreonam to 4 ug/ml
Pseudomonas aeruginosa [2] = experiment: Inhibition of Pseudomonas aeruginosa PAM 1154 KPC-2 assessed as assessed as minimum potentiating concentration of compound needed to reduce the MIC of biapenem by 64 fold
Escherichia coli [3] = experiment: Inhibition of Escherichia coli EC302 TEM-10 assessed as minimum concentration of compound needed to reduce the MIC of aztreonam to 4 ug/ml
Enterobacter cloacae = experiment: Inhibition of Enterobacter cloacae ECL1002 AmpC assessed as minimum concentration of compound needed to reduce the MIC of aztreonam to 4 ug/ml
[4] = target: Beta-lactamase (Klebsiella pneumoniae) (UniProt Q93LQ9); experiment: Inhibition of Klebsiella pneumoniae KP1004 KPC-2 assessed as minimum concentration of compound needed to reduce the MIC of aztreonam to 4 ug/ml
Pseudomonas aeruginosa [5] = experiment: Inhibition of Pseudomonas aeruginosa PAM 1032 KPC-2 assessed as minimum potentiating concentration of compound needed to reduce the MIC of biapenem by 64 fold
Pseudomonas aeruginosa [6] = experiment: Inhibition of Pseudomonas aeruginosa PAM 2035 AmpC assessed as minimum concentration of compound needed to reduce the MIC of aztreonam to 4 ug/ml
Escherichia coli [7] = experiment: Inhibition of Escherichia coli EC308 SHV-5 assessed as minimum concentration of compound needed to reduce the MIC of aztreonam to 4 ug/ml
[8] = Ratio of inhibition of Pseudomonas aeruginosa PAM 1032 KPC-2 assessed as minimum potentiating concentration of compound needed to reduce the MIC of biapenem by 64 fold to inhibition of Pseudomonas aeruginosa PAM 1154 KPC-2 assessed as assessed as minimum potentiating concentration of compound needed to reduce the MIC of biapenem by 64 fold
[9] = Drug level in monkey treated with disodium salt of 8-carboxylato-2,2-dihydroxy-7-methoxy-3,4-dihydro-2Hbenzo[e][1,2]oxaborinin-2-uide assessed as compound formation; type: ADME, Macaca mulatta; conditions: rhesus monkey, in vivo
[10] = Drug level in dog treated with disodium salt of 8-carboxylato-2,2-dihydroxy-7-methoxy-3,4-dihydro-2Hbenzo[e][1,2]oxaborinin-2-uide assessed as compound formation; type: ADME, Canis lupus familiaris; conditions: in vivo
[11] = Oral bioavailability in rat at 50 to 75 mg/kg by HPLC/MS analysis; type: ADME, organism-based; conditions: in vivo
[12] = target: Beta-lactamase OXA-23 (Acinetobacter baumannii) (UniProt Q9L4P2); experiment: Inhibition of Acinetobacter baumannii AB1054 OXA-23 assessed as minimum concentration of compound needed to reduce the MIC of meropenem to 8 ug/ml
Klebsiella pneumoniae [13] = experiment: Inhibition of Klebsiella pneumoniae KP1160 IMP-26 assessed as minimum concentration of compound needed to reduce the MIC of meropenem to 1 ug/ml
Escherichia coli [14] = experiment: Inhibition of Escherichia coli ECM6625 SHV-5 assessed as minimum concentration of compound needed to reduce the MIC of aztreonam to 4 ug/ml
Escherichia coli [15] = experiment: Inhibition of Escherichia coli ECM6619 TEM-10 assessed as minimum concentration of compound needed to reduce the MIC of aztreonam to 4 ug/ml
Escherichia coli [16] = experiment: Inhibition of Escherichia coli KP308 SHV-5 assessed as minimum concentration of compound required to reduce the MIC of aztreonam to 4 ug/ml
Acinetobacter baumannii = experiment: Inhibition of Acinetobacter baumannii AB1053 OXA-72 assessed as minimum concentration of compound needed to reduce the MIC of meropenem to 8 ug/ml
Klebsiella pneumoniae [17] = experiment: Inhibition of Klebsiella pneumoniae KP1081 NDM-1 assessed as minimum concentration of compound required to reduce the MIC of biapenem to 1 ug/ml
[18] = Protein binding in human plasma; type: ADME, cell-free; conditions: read-out: PPB (converted)
Klebsiella pneumoniae [19] = experiment: Inhibition of Klebsiella pneumoniae KP1054 VIM-1 assessed as minimum concentration of compound required to reduce the MIC of biapenem to 1 ug/ml
[20] = Inhibition of recombinant Escherichia coli SHV-12 using nitrocefin as substrate preincubated for 10 mins followed by substrate addition measured every 10 secs for 10 mins by spectrophotometrically analysis
[21] = target: Beta-lactamase (Klebsiella pneumoniae) (UniProt Q93LQ9); experiment: Inhibition of Klebsiella pneumoniae KP1004 KPC-2 assessed as minimum concentration of compound needed to reduce the MIC of biapenem to 1 ug/ml
[22] = target: Class A carbapenemase KPC-2 (Escherichia coli, UniProt A8DS27); experiment: Inhibition of recombinant Escherichia coli KPC-2 using nitrocefin as substrate preincubated for 10 mins followed by substrate addition and measured every 10 secs for 10 mins by spectrophotometric analysis
BlaVIM-1 = BlaVIM-1 (Escherichia coli, UniProt Q8GDC1); experiment: Inhibition of recombinant Escherichia coli VIM-1 using nitrocefin as substrate preincubated for 10 mins followed by substrate addition measured every 10 secs for 10 mins by spectrophotometrically analysis
[23] = Inhibition of recombinant Escherichia coli NDM-1 using imipenem as substrate preincubated for 10 mins followed by substrate addition and measured every 30 secs for 30 mins by spectrophotometric analysis
[24] = Inhibition of recombinant Escherichia coli CTX-M-14 using nitrocefin as substrate preincubated for 10 mins followed by substrate addition measured every 10 secs for 10 mins by spectrophotometrically analysis
Klebsiella pneumoniae [25] = experiment: Inhibition of Klebsiella pneumoniae KP1081 NDM-1 assessed as minimum concentration of compound needed to reduce the MIC of biapenem to 1 ug/ml
[26] = Inhibition of recombinant Escherichia coli AmpC using nitrocefin as substrate preincubated for 10 mins followed by substrate addition measured every 10 secs for 10 mins by spectrophotometrically analysis
Klebsiella pneumoniae [27] = experiment: Inhibition of Klebsiella pneumoniae KP1086 OXA-48 assessed as minimum concentration of compound needed to reduce the MIC of biapenem to 1 ug/ml
[28] = Inhibition of recombinant Escherichia coli OXA-48 using nitrocefin as substrate preincubated for 10 mins followed by substrate addition and measured every 10 secs for 10 mins by spectrophotometric analysis
[29] = Inhibition of […] OXA-48 using nitrocefin as substrate preincubated for 10 mins followed by substrate addition measured every 10 secs for 10 mins by spectrophotometrically analysis
[30] = Inhibition of recombinant Escherichia coli IMP-1 using imipenem as substrate preincubated for 10 mins followed by substrate addition measured every 30 secs for 30 mins by spectrophotometrically analysis

Sequence of Beta-lactamase (Klebsiella pneumoniae) (Q93LQ9 as listed by the source): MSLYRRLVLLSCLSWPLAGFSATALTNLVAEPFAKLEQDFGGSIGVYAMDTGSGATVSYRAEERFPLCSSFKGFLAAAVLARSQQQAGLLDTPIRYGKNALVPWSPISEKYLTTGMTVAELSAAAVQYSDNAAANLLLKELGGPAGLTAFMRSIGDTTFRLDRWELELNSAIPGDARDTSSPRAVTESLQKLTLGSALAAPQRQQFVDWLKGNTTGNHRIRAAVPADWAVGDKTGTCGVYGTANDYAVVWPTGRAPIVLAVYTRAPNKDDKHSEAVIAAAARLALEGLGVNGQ
Sequence of Beta-lactamase OXA-23 (Acinetobacter baumannii) (Q9L4P2 whole entry): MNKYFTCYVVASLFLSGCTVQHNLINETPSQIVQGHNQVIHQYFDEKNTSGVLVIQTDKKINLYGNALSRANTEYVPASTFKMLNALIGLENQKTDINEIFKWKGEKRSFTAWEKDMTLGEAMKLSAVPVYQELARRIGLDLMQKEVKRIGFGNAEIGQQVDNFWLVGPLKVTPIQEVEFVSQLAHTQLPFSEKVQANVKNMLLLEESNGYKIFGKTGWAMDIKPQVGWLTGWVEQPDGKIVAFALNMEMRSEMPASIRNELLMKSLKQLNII
Sequence of Class A carbapenemase KPC-2 (A8DS27 whole entry): as the sequence (Q93LQ9 as listed by the source) above

| MEC (Klebsiella pneumoniae [1]) [µg/mL] | Activity (Pseudomonas aeruginosa [2]) [µg/mL] | MEC (Escherichia coli [3]) [µg/mL] | MEC (Enterobacter cloacae) [µg/mL] | MEC [4] [µg/mL] | Activity (Pseudomonas aeruginosa [5]) [µg/mL] | MEC (Pseudomonas aeruginosa [6]) [µg/mL] | MEC (Escherichia coli [7]) [µg/mL] | Ratio [8] | MEC (Klebsiella pneumoniae [17]) [µg/mL] | Structure (SMILES) | other results |
| --- | --- | --- | --- | --- | --- | --- | --- | --- | --- | --- | --- |
| 1.25 | 2.5 | 2.5 | 2.5 | 1.25 | 40 | 5 | < 0.3 | 16 | – | CSCC(=O)N[C@H]1Cc2ccc(O)c(C(=O)O)c2OB1O | – |
| 0.6 | 5 | 5 | 0.6 | 0.6 | 80 | 2.5 | < 0.3 | 8 | – | CSCC(=O)N[C@H]1Cc2cccc(C(=O)O)c2OB1O | – |
| – | – | – | – | – | – | – | – | – | – | COc1ccc(CCO)c(O)c1C(=O)O | Drug uptake [9]: Active; Drug uptake [10]: Active |
| – | – | – | – | – | – | – | – | – | – | COc1ccc2c(c1C(=O)OCOC(=O)OC(C)C)OB(O)[C@@H](Sc1nncs1)C2 | bioavailability [11]: 94% |
| – | 5 | – | – | – | 5 | – | – | 1 | – | O=C(CSC1CNC1)N[C@H]1Cc2ccc(F)c(C(=O)O)c2OB1O | – |
| < 0.3 | 5 | < 0.3 | 0.6 | < 0.3 | 10 | 20 | < 0.3 | 2 | – | COc1ccc2c(c1C(=O)O)OB(O)[C@@H](NC(=O)CSC)C2 | – |
| 0.3 | – | 0.08 | 0.3 | 0.16 | – | 2.5 | – | – | 0.3 | COc1ccc2c(c1C(=O)O)OB(O)[C@@H]1C[C@H]21 | MEC [12]: 1.25 µg/mL; MEC (Klebsiella pneumoniae [13]): 5 µg/mL; MEC (Escherichia coli [14]): 0.08 µg/mL; MEC (Escherichia coli [15]): 0.08 µg/mL; MEC (Escherichia coli [16]): 0.08 µg/mL; MEC (Acinetobacter baumannii): 0.6 µg/mL; fraction unbound [18]: 0.11; MEC (Klebsiella pneumoniae [19]): 0.04 µg/mL |
| – | – | – | – | – | – | – | – | – | – | COc1ccc2c(c1C(=O)OCOC(C)=O)OB(O)[C@@H](Sc1nncs1)C2 | bioavailability [11]: 52% |
| – | – | – | – | < 0.04 | – | – | – | – | > 20 | NC(=O)[C@@H]1CC[C@@H]2CN1C(=O)N2OS(=O)(=O)O [AVIBACTAM] | Ki [20]: 0.27 nM; Activity [21]: < 0.04 µg/mL; Ki [22]: 11 nM; Ki (BlaVIM-1): > 40000 nM; Ki [23]: 40000 to 80000 nM; Ki [24]: 0.41 nM; Activity (Klebsiella pneumoniae [25]): > 20 µg/mL; Ki [26]: 10 nM; Activity (Klebsiella pneumoniae [27]): 1.25 µg/mL; Ki [28]: 27 nM; Ki [29]: 27 nM; Ki [30]: > 40000 nM |
| > 20 | – | 20 | 20 | 10 | – | – | – | – | 0.6 | O=C(O)c1cccc2c1OB(O)[C@@H](Sc1nncs1)C2 | Activity [21]: 0.16 µg/mL; Ki [22]: 150 nM; Ki [23]: 24 nM; MEC (Klebsiella pneumoniae [13]): 40 µg/mL; Activity (Klebsiella pneumoniae [25]): 0.6 µg/mL; Activity (Klebsiella pneumoniae [27]): 5 µg/mL; MEC (Escherichia coli [16]): 2.5 µg/mL; Ki [28]: 1.4 nM; MEC (Klebsiella pneumoniae [19]): 2.5 µg/mL |
| < 0.3 | 5 | 1.25 | 2.5 | 0.6 | 20 | 10 | < 0.3 | 4 | > 20 | CSCC(=O)N[C@H]1Cc2ccc(F)c(C(=O)O)c2OB1O | MEC [12]: > 20 µg/mL; MEC (Klebsiella pneumoniae [13]): > 20 µg/mL; MEC (Escherichia coli [14]): 0.15 µg/mL; MEC (Escherichia coli [15]): 1.25 µg/mL; MEC (Acinetobacter baumannii): > 20 µg/mL; MEC (Klebsiella pneumoniae [19]): > 20 µg/mL |
